# Assay results taken from patent US20050090451A1, “Treatment of cancer with glutamine” (priority 2002, published 2005).
# Like-named read-outs stand apart in the source and are kept apart here. Square brackets hold non-standard residues; d marks the D form. Peptide text beside a SMILES is read from it. Sar = CNCC(=O)O
# Experiments:
# Caco-2 cell monolayers [1] = system: Caco-2 cell monolayers
# Method: (§1) Uptake and permeability of each compound was measured in the apical-to-basolateral direction, with and without vehicle.
# (§2) Each compound was tritiated. ^14C-mannitol was used as an evaluation of monolayer/cell integrity (i.e. as a low uptake/permeability marker).
# (§3) Uptake and Permeability Assessments. Compound cellular uptake into and permeability across Caco-2 monolayers was measured.
# (§4) HBSS was used when no pharmaceutical vehicle was present for each of the four compounds. […] Monolayer integrity was monitored using ^14C-mannitol permeability. Mannitol uptake was also studied.
# (§5) Uptake and permeability studies were conducted using Transwelle inserts in the apical to basolateral direction, at intervals of 10 sec., 60 sec., and 5 min.
# (§6) ^14C-mannitol and ^3H-drugs were quantified by liquid scintillation counting. For uptake studies, at designated time points (10 sec, 60 sec, and 5 min), the donor solution was aspirated off. The cell monolayer was washed twice with ice cold HBSS to remove any residual binding and then dissolved in 1 ml of the cell solubilizing agent, Solvable®. The cell lysate (0.5 ml) was added to 5 ml scintillation cocktail (Econosafe®) and counted on liquid scintillation counter (Beckman LS5801, Columbia, Md.). For permeability studies, 0.5 ml of received solution was added to 5 ml scintillation cocktail (Econosafe®) and counted on liquid scintillation counter.
# Caco-2 cell monolayers [2] = system: Caco-2 cell monolayers; remark: listed apart in the source
# Method: (§7) Compound cellular uptake into and permeability across Caco-2 monolayers was measured.
# (§8) Monolayer integrity was monitored using ^14C-mannitol permeability. Mannitol uptake was also studied.
# as §5, §6
# (§9) Permeability is an absolute measure (units of cm/Sec or velocity) and can be determined even though the absolute drug concentrations were not known.
# in vitro = conditions: human, Caco-2, Mannitol Permeability with Vehicle
# Method: as §7, §8, §5, §6, §9
# Caco-2 cell monolayers [3] = assay: Relative cellular uptake into Caco-2 monolayers, vehicle vs non-vehicle; conditions: saturated solutions; AES-14 vehicle vs HBSS; FIGS. 3-6
# Method: as §1, §2, §3, §4, §5, §6
# Caco-2 cell monolayers [4] = assay: Caco-2 permeability, apical-to-basolateral; conditions: Aesgen-14 vehicle vs no vehicle; saturated solutions; 5 minute period; FIGS. 8-11
# Method: as §7, §8, §5, §6, §9
# [5] = system: gut glutathione (GSH) production; assay: Gut GLN and GSH fluxes in DMBA-treated rats; assay type: in vivo, Sprague-Dawley rats; conditions: 20 mg DMBA gavage; 1 week after DMBA; FIG. 15
# Method: Methods: 80 Sprague-Dawley rats were randomized to 4 groups (n=20/group): DMBA+GLN, DMBA+FA, OIL+GLN, OIL+FA. Rats (age 50 days) were gavaged with a 1-time dose of 20 mg DMBA or oil. Rats were gavaged with AES-14 (1 gm GLN/kg/day) or an isonitrogenous amount of Freamine (FA) from 1 week before till sacrifice at 1 week after DMBA (greatest effect on gut GSH extraction). Arterial and portal blood was taken for GLN and GSH levels, and blood flow measured using 14-C-PAH. Gut GLN and GSH fluxes (uptake or production) were calculated.
# [6] = system: natural killer (NK) cell cytotoxicity; assay: NK cell cytotoxicity, 51-Chromium release assay with YAC-1; assay type: in vivo, rats; conditions: only at week 1 and week 11; FIG. 31
# Method: Rats were treated as in Example 5.
# NK cell cytotoxicity was measured as follows: Aseptically removed spleens were minced using a sterile scalpel, and lymphocytes were teased from the splenic capsule with warm RPMI 1640 (Gibco BRL, Life Technologies Inc., Grand Island, N.Y.). The resulting cells were poured into 50 ml conical tubes, which were filled with ammonium chloride (0.83%) (Sigma Chemical Co., St. Louis, Mo.) to lyse the red cells. The cell solution was then centrifuged for 10 minutes at 1000 rpm. The supernatant was decanted, and the cell pellet was vortexed with RPMI (no GLN) and centrifuged again. Next, the cells were resuspended in approximately 10 ml of RPMI containing 10% fetal bovine serum […] (Gibco BRL, Life Technologies Inc., Grand Island, N.Y.) supplemented with 1% GLN. This cell suspension was placed in Petri dishes and incubated in 6% CO2 at 37° C. for 30 minutes. After incubation to assure adherence of the monocytes, the nonadherent lymphocytes were counted (1:1 with crystal violet stain). Approximately 7×10^6 total cells from each spleen were incubated for 3 days in RPMI containing 10% FBS and recombinant human IL-2 (500 U/ml). […] The calculation of the NK activity is expressed as the following equation: [formula]
# [7] = Portal blood and gut mucosa GSH after DMBA; assay type: in vivo, Sprague-Dawley rats; conditions: 100 mg/kg DMBA, one week after
# [8] = system: GSH transport in jejunal basolateral membrane vesicles (BLMV); assay: [3H]Glutathione uptake in jejunal basolateral membrane vesicles after DMBA; assay type: in vivo, Sprague-Dawley rats; conditions: 100 mg/kg DMBA single dose; one week after; FIG. 26
# Method: Methods: The transport of GSH in the jejunal basolateral membrane vesicles (BLMV) was investigated in Sprague-Dawley rats treated with a single dose of 100 mg/kg DMBA (n=15) or sesame oil (n=15) as controls. The animals were pair-fed pre-defined chow and were given water ad libitum. All rats were sacrificed one week after the DMBA administration. Jejunal basolateral membrane vesicles (BLMV) were prepared using Percoll Colloidal PVP coated silica differential centrifugation technique. All steps were carried out at 2-4° C. Jejunal mucosal scraping was homogenized in isolation buffer containing 180 mM sucrose/2 mM Tris being adjusted to pH 7.40 by 2 mM Hepes using a Polytron homogenizer (Brinkman, Rexdale, ON), at setting 2 to 6 then 6 to 2, over 55 seconds. The homogenate was centrifuges for 10 minutes at 1000 g. The supernatant was filtered through four layers gauze and recollected. The supernatant containing basolateral membrane material then was centrifuged 15 minutes at 22,000 g. […] Protein concentration was determined by the Bio-Rad protein assay (Bio-Rad Laboratories, Hercules, Calif.).
# The uptake of [^3H]Glutathione was measured by a rapid mixing/filtration technique. […] All vials were counted with liquid scintillation system LS 1801 (Beckman coulter, Fullerton, Calif.).
# tumor = conditions: cited from earlier work
# [9] = The Merck Index, cited from earlier work
# [10] = system: human gastrointestinal epithelial cell line (CaCo); assay: Cellular glutamine uptake in CaCo cells (HPLC); assay type: cell-based
# Method: Both samples were allowed to stand for 1 day at room temperature. The supernatant was decanted from the residue and used for the cellular uptake determination.
# On Day 1, cells from a human gastrointestinal epithelial cell line (CaCo) were plated at a density of 0.5×10^6 cells per well in a 6-well tissue culture dish.
# At time points 0, 10, 20, 40, and 60 seconds the test material was aspirated and the cells washed three times (3×) with chilled (4° C.) phosphate buffered saline (PBS), followed by the addition of 1.0 ml of perchloric acid. Cells were harvested by scraping, then aspiration by pipet into a 1.7 ml tube.
# The harvested cells were sonicated for 10 seconds, and 500 μl of sonicated cells were transferred into a 1.7 ml tube. The perchloric acid was neutralized by the addition of 130 μl of 2M KHCO3, and the resulting mixture was frozen overnight at −80° C.
# Upon thawing, the sample was centrifuged for 10 minutes at 14,000 rpm and the supernatants were transferred to new 1.7 ml tubes and frozen at −80° C. The resulting clarified samples were thawed and diluted 1:3 with deionized water. […] After incubation for two minutes at room temperature, a 20 μl sample was injected on a Hypersil® C18 Elite 5 μm HPLC column using 70:30 acetonitrile:water as the mobile phase. Glutamine levels, measured as μg/ml, were detected at 340 nm.
smiles,measurement,setting,value
"OC[C@@H](O)[C@@H](O)[C@H](O)[C@H](O)CO [Mannitol, mannitol]",effect of vehicle on mannitol relative uptake,Caco-2 cell monolayers [1],no effect
same,Mannitol Permeability with Vehicle,Caco-2 cell monolayers [2],Below LOQ
same,Mannitol Permeability without Vehicle,Caco-2 cell monolayers [2],Below LOQ
same,effect of vehicle on mannitol permeability,Caco-2 cell monolayers [2],no effect
same,Papp A→B at 5 min,in vitro,0.916 ×10⁻⁶ cm/s
CN(CC(=O)O)C(=O)CN [glycylsarcosine] (H-Gly-[Sar]-OH),enhancement of cellular drug uptake by vehicle (relative uptake vehicle vs non-vehicle),Caco-2 cell monolayers [3],about four-fold
same,effect of vehicle on permeability,Caco-2 cell monolayers [4],no effect
"Cc1c2ccccc2c(C)c2c1ccc1ccccc12 [DMBA, 7,12-dimethylbenz[a]anthracene]",effect on gut GLN metabolism,[5],not affecting
same,effect on normal gut GSH production (negative flux),[5],abrogated
same,NK cell activity vs non-DMBA controls,[6],lower
same,decrease of portal blood GSH concentration,[7]; FIG. 27,34%
same,increase of gut mucosa GSH,[7]; FIG. 28,two-fold
same,decrease of the rate of total GSH uptake by BLMV vs control group,[8],42%
Nc1nc2c(ncn2COCCO)c(=O)[nH]1 [acyclovir],effect of vehicle on permeability,Caco-2 cell monolayers [2],no effect
NC(=O)C[C@H](N)C(=O)O [L-asparagine],enhancement of cellular drug uptake by vehicle (relative uptake vehicle vs non-vehicle),Caco-2 cell monolayers [1],about four-fold
same,effect of vehicle on permeability,Caco-2 cell monolayers [2],no effect
NC(=O)CC[C@H](N)C(=O)O [L-glutamine],enhancement of cellular uptake by vehicle,Caco-2 cell monolayers [1],enhanced
same,tumor volume loss when glutamine was added to the diet,"tumor; rats receiving methotrexate, Klimberg 1992",nearly doubled
same,decrease of tumor growth,"tumor; rats, glutamine by gavage or as a food additive, within three weeks, Fahr 1994",40%
same,solubility in water,[9]; 0° C.,18 mg/mL
same,solubility in water,[9]; 18° C.,26 mg/mL
same,solubility in water,[9]; 30° C.,48 mg/mL
same,effect of vehicle on permeability,Caco-2 cell monolayers [2],no effect
same,mean cellular glutamine uptake,"[10]; normal cells, incubation time 0 seconds",3.53 µg/mL
same,mean cellular glutamine uptake,"[10]; normal cells, incubation time 10 seconds",10.30 µg/mL
same,mean cellular glutamine uptake,"[10]; normal cells, incubation time 20 seconds",2.48 µg/mL
same,mean cellular glutamine uptake,"[10]; normal cells, incubation time 40 seconds",3.23 µg/mL
same,mean cellular glutamine uptake,"[10]; normal cells, incubation time 60 seconds",4.85 µg/mL
same,mean cellular glutamine uptake,"[10]; starved cells (L-glutamine deficient medium), incubation time 0 seconds",1.33 µg/mL
same,mean cellular glutamine uptake,"[10]; starved cells, incubation time 10 seconds",1.43 µg/mL
same,mean cellular glutamine uptake,"[10]; starved cells, incubation time 20 seconds",1.49 µg/mL
same,mean cellular glutamine uptake,"[10]; starved cells, incubation time 40 seconds",2.23 µg/mL
same,mean cellular glutamine uptake,"[10]; starved cells, incubation time 60 seconds",49.96 µg/mL
